EPA's ToxValDB 9.5
Values joined by “and” are separate entries in the source; they are usually repeats but may differ in a detail not shown here. Equal entries are not always repeated.

Key:
Rattus norvegicus [1] = conditions: M/F
Oryctolagus sp. = conditions: for LD50: acute, dermal; for NOAEL: reproduction developmental, oral
Rattus norvegicus [2] = conditions: for LC50 / LD50: acute
Rattus norvegicus [3] = conditions: oral
[4] = short-term, duration: 28 days, oral, diet, Sprague-Dawley
[5] = short-term, duration: 28 days, gavage, M, Sprague-Dawley, Clinical Observation: Locomotor activity decrease, Salivation + Blood Chemistry: Ch E decrease
[6] = subchronic, duration: 90 days, oral, diet, increased liver weight, serum cholesterol, hepatic aminopyrine n-demethylase activity, and alanine transaminase levels
[7] = developmental, oral, reduced body weight gain in parental animals and pups
[8] = chronic, duration: 2 years, oral, diet, reduced weight gain, organ weight changes, increased mortality
[9] = developmental, duration: 10 days, oral, gavage, Sprague-Dawley
[10] = reproduction developmental, duration: 10 days, oral, gavage, F, Sprague-Dawley
[11] = subchronic, duration: 13 weeks, oral, gavage, decreased testis weight and altered spermatogenesis in males. + Increased heart weight in females and males
[12] = reproduction developmental, duration: 39 days, oral, gavage, generation: F0
[13] = short-term, duration: 28 days, oral, gavage

Question: With `O=C(CCl)c1ccccc1` [2-Chloroacetophenone] as the molecule, how does the LOAEL (Rattus norvegicus [1]; chronic, inhalation, squamous hyperplasia of the nasal respiratory epithelium) read?
Answer: 1 mg/m3

Question: Which results are given for `Cc1ccc(OP(=O)(Oc2ccc(C)cc2)Oc2ccc(C)cc2)cc1.Cc1cccc(OP(=O)(Oc2cccc(C)c2)Oc2cccc(C)c2)c1.Cc1ccccc1OP(=O)(Oc1ccccc1C)Oc1ccccc1C` [Tris(methylphenyl) phosphate]?
Answer: LD50 (Oryctolagus sp.): > 10000 mg/kg; LC50 (Rattus norvegicus [2]; Inhalation, Sprague-Dawley): > 5.2 µg/mL; LC50 (Rattus norvegicus [2]; inhalation, Wistar): < 200 µg/mL; LD50 (Rattus norvegicus [2]; oral, gavage, Wistar): > 20000 mg/kg; LOAEL (% diet) (Rattus norvegicus [2]; [4]): 0.5; NOAEL (% diet) (Rattus norvegicus [2]; [4]): 0.1; NOAEL (Rattus norvegicus [3]; [5]): 200 mg/kg-day; NOEL (Rattus norvegicus [3]; [5]): < 40 mg/kg-day; NOEL (Rattus norvegicus [3]; subchronic, duration: 13 weeks, diet, F, Fischer 344, Clinical Observation: Emaciation + Body Weight Changes: decrease + Food Consumption: decrease + Hematology: Hct decrease, RBC decrease, Hgb …): 65 mg/kg-day; NOEL (Rattus norvegicus [3]; subchronic, duration: 13 weeks, diet, M/F, Fischer 344, Clinical Observation: Emaciation + Body Weight Changes: decrease + Food Consumption: decrease + Hematology: Hct decrease, RBC decrease, Hgb …): < 86.4 mg/kg-day; NOEL (Rattus norvegicus [3]; subchronic, duration: 13 weeks, gavage, M/F, Fischer 344, Body Weight Changes: decrease + Hematology: Hct decrease, Hgb decrease, RBC decrease + Blood Chemistry: Ch E decrease + Absolute Organ …): < 50 mg/kg-day

Question: For `CC(C)(C)[C@H](O)[C@H](Cc1ccc(Cl)cc1)n1cncn1` (racemic) [Paclobutrazol], which LEL (Rattus norvegicus [1]; [6]) is on record?
Answer: 62.5 mg/kg-day

Question: And the NOEL (Rattus norvegicus [1]; [6])?
Answer: 12.5 mg/kg-day

Question: For `Nc1ccc(Cl)cc1` [4-Chloroaniline], which LOAEL (Rattus norvegicus [1]; chronic, oral, nonneoplastic lesions of splenic capsule) is on record?
Answer: 12.5 mg/kg-day

Question: How did the LEL (Rattus norvegicus [1]; [7]) turn out when `CCN(CC)C(=O)C(C)Oc1cccc2ccccc12` (configuration not stated) [Napropamide] was run?
Answer: 100 mg/kg-day

Question: And the NOEL (Rattus norvegicus [1]; [7])?
Answer: 30 mg/kg-day

Question: `CN(C)NC(=O)CCC(=O)O` [Daminozide] was tested. Which NOEL (Rattus norvegicus [1]; reproduction developmental, oral, no effects) did it give?
Answer: 15 mg/kg-day

Question: `CCCCCCCCC(=O)OCC(CC)(COC(=O)CCCCCCCC)COC(=O)CCCCCCCC` [Trimethylolpropane trinonanoate] was tested. Which LD50 (Oryctolagus sp.) did it give?
Answer: > 2000 mg/kg

Question: What about the LD50 (Rattus norvegicus [2]; oral, gavage, Crl:CD(SD)) of the same molecule?
Answer: > 2000 mg/kg

Question: What about the LD50 (Rattus norvegicus [2]; oral, gavage, Sherman Wistar) of the same molecule?
Answer: > 5000 mg/kg

Question: What about the LD50 (Rattus norvegicus [2]; oral, gavage, Sprague-Dawley) of the same molecule?
Answer: > 2000 mg/kg

Question: And the LD50 (Rattus norvegicus [2]; oral, gavage, Wistar)?
Answer: > 2000 mg/kg

Question: With `CC1=C(C(=O)Nc2ccccc2)SCCO1` [Carboxin] as the molecule, how does the LEL (Rattus norvegicus [1]; [8]) read?
Answer: 30 mg/kg-day

Question: What about the NOEL (Rattus norvegicus [1]; [8]) of the same molecule?
Answer: 10 mg/kg-day

Question: With `CC(C)CC(C)Nc1ccc(Nc2ccccc2)cc1` (configuration not stated) [6PPD] as the molecule, how does the LD50 (Oryctolagus sp.; occlusive, New Zealand) read?
Answer: > 7940 mg/kg

Question: What about the NOAEL (Oryctolagus sp.; duration: 13 days, F, New Zealand) of the same molecule?
Answer: 30 mg/kg-day

Question: And the LD50 (Rattus norvegicus [2]; oral, Sprague-Dawley)?
Answer: > 5000 mg/kg

Question: What about the LD50 (Rattus norvegicus [2]; oral, gavage, Sprague-Dawley) of the same molecule?
Answer: 3580 mg/kg

Question: What about the NOAEL (Rattus norvegicus [2]; [9]) of the same molecule?
Answer: > 250 mg/kg-day

Question: And the NOAEL (Rattus norvegicus [2]; reproduction developmental, duration: 23 weeks, oral, diet, Sprague-Dawley, generation: F0)?
Answer: 100 ppm

Question: What about the NOAEL (Rattus norvegicus [2]; reproduction developmental, duration: 23 weeks, oral, diet, Sprague-Dawley, generation: F1) of the same molecule?
Answer: 1000 ppm

Question: What about the NOAEL (Rattus norvegicus [2]; reproduction developmental, duration: 23 weeks, oral, diet, Sprague-Dawley, generation: F2) of the same molecule?
Answer: 1000 ppm

Question: And the NOAEL (Rattus norvegicus [2]; [10])?
Answer: 50 mg/kg-day

Question: And the NOAEL (Rattus norvegicus [2]; reproduction developmental, duration: 21 days, oral, gavage, Sprague-Dawley, generation: F0)?
Answer: > 1000 ppm

Question: What about the NOAEL (Rattus norvegicus [2]; reproduction developmental, duration: 21 days, oral, gavage, Sprague-Dawley, generation: F1) of the same molecule?
Answer: > 1000 ppm

Question: What about the LOAEL (Rattus norvegicus [2]; short-term, duration: 4 weeks, inhalation, particle, Sprague-Dawley) of the same molecule?
Answer: 50 mg/m3

Question: And the NOAEL (Rattus norvegicus [2]; subchronic, duration: 90 days, oral, diet, Sprague-Dawley)?
Answer: 24 mg/kg-day

Question: With `O=C([O-])CF.[Na+]` [Sodium fluoroacetate] as the molecule, how does the LOAEL (Rattus norvegicus [1]; [11]) read?
Answer: 0.2 mg/kg-day

Question: And the NOAEL (Rattus norvegicus [1]; [11])?
Answer: 0.05 mg/kg-day

Question: For `O=S(=O)([O-])c1ccc(Nc2nc(Nc3ccc(/C=C/c4ccc(Nc5nc(Nc6ccc(S(=O)(=O)[O-])cc6)nc(N(CCO)CCO)n5)cc4S(=O)(=O)[O-])c(S(=O)(=O)[O-])c3)nc(N(CCO)CCO)n2)cc1.[Na+].[Na+].[Na+].[Na+]` [C.I. Fluorescent Brightener 220], which NOAEL (Oryctolagus sp.; duration: 21 days, gavage, F, New Zealand) is on record?
Answer: 100 mg/kg-day

Question: And the NOAEL (Oryctolagus sp.; duration: 21 days, gavage, New Zealand, generation: F1)?
Answer: 300 mg/kg-day and 800 mg/kg-day

Question: What about the LD50 (Rattus norvegicus [2]; oral, gavage) of the same molecule?
Answer: > 15000 mg/kg

Question: And the NOAEL (Rattus norvegicus [2]; chronic, duration: 104 weeks, oral, diet, F, Wistar)?
Answer: 780 mg/kg-day

Question: What about the NOAEL (Rattus norvegicus [2]; chronic, duration: 104 weeks, oral, diet, M, Wistar) of the same molecule?
Answer: 780 mg/kg-day

Question: What about the NOAEL (Rattus norvegicus [2]; reproduction developmental, duration: 9 months, oral, gavage, Sprague-Dawley, generation: F1) of the same molecule?
Answer: 1000 mg/kg-day

Question: And the NOAEL (Rattus norvegicus [2]; reproduction developmental, duration: 9 months, oral, gavage, Sprague-Dawley, generation: F2)?
Answer: 1000 mg/kg-day

Question: And the NOAEL (Rattus norvegicus [2]; reproduction developmental, duration: 13 days, oral, gavage, F, Sprague-Dawley)?
Answer: 1000 mg/kg-day

Question: And the NOAEL (Rattus norvegicus [2]; reproduction developmental, duration: 13 days, oral, gavage, Sprague-Dawley, generation: F1)?
Answer: 1000 mg/kg-day

Question: And the NOAEL (Rattus norvegicus [2]; reproduction developmental, oral, gavage, Sprague-Dawley, generation: F0)?
Answer: 1000 mg/kg-day

Question: What about the NOAEL (Rattus norvegicus [2]; reproduction developmental, oral, gavage, Sprague-Dawley, generation: F1) of the same molecule?
Answer: 1000 mg/kg-day

Question: And the NOAEL (Rattus norvegicus [2]; subchronic, duration: 10 weeks, oral, gavage, F, Wistar)?
Answer: 500 mg/kg-day

Question: And the NOAEL (Rattus norvegicus [2]; subchronic, duration: 10 weeks, oral, gavage, M, Wistar)?
Answer: 500 mg/kg-day

Question: For `CC(C)C(C)(N)C#N` (configuration not stated) [2-Amino-2,3-dimethylbutanenitrile], which LD50 (Oryctolagus sp.; occlusive, New Zealand) is on record?
Answer: 23 mg/kg

Question: And the LC50 (Rattus norvegicus [2]; inhalation, Sprague-Dawley)?
Answer: 422 mg/m3 and 335 mg/m3

Question: And the LD50 (Rattus norvegicus [2]; oral, gavage, Sprague-Dawley)?
Answer: 83 mg/kg

Question: And the NOAEL (Rattus norvegicus [2]; short-term, duration: 28 days, dermal, occlusive, Charles River (Sprague-Dawley derived))?
Answer: 3 mg/kg-day

Question: `C=C1C2CCC(C2)C1(C)C` (configuration not stated) [Camphene] was tested. Which LD50 (Oryctolagus sp.; New Zealand) did it give?
Answer: > 2500 mg/kg

Question: And the LD50 (Rattus norvegicus [2]; oral, Wistar)?
Answer: > 5000 mg/kg

Question: What about the NOAEL (Rattus norvegicus [2]; [9]) of the same molecule?
Answer: 1000 mg/kg-day

Question: What about the NOAEL (Rattus norvegicus [2]; [10]) of the same molecule?
Answer: 250 mg/kg-day

Question: What about the NOAEL (Rattus norvegicus [2]; short-term, duration: 28 days, oral, gavage, F, Wistar) of the same molecule?
Answer: 250 mg/kg-day

Question: And the NOAEL (Rattus norvegicus [2]; short-term, duration: 28 days, oral, gavage, M, Wistar)?
Answer: 62.5 mg/kg-day

Question: And the LOAEL (Rattus norvegicus [2]; short-term, duration: 28 days, oral, gavage, Wistar)?
Answer: 1000 mg/kg-day

Question: What does the source list for `CCCCCCCCCCCCOC(=O)CS(=O)(=O)[O-].[Na+]` [Sodium 2-(dodecyloxy)-2-oxoethane-1-sulphonate]?
Answer: LD50 (Oryctolagus sp.; occlusive, New Zealand): > 2000 mg/kg; LD50 (Rattus norvegicus [2]; oral, Wistar): 1000 mg/kg; LD50 (Rattus norvegicus [2]; oral, gavage, Sprague-Dawley): > 2000 mg/kg; NOAEL (Rattus norvegicus [2]; reproduction developmental, duration: 39 days, oral, gavage): 1000 mg/kg-day; LOAEL (Rattus norvegicus [2]; [12]): 1000 mg/kg-day; NOAEL (Rattus norvegicus [2]; [12]): 200 mg/kg-day; LOAEL (Rattus norvegicus [2]; [13]): 800 mg/kg-day; NOAEL (Rattus norvegicus [2]; [13]): 200 mg/kg-day
